Publication doi:10.1101/2022.09.13.507756v1 (biorxiv, 2022)
Read-outs that look alike come from different tables or passages of the source.

How the values were obtained:
[1] = test system: AncCDT-5; conditions: 50 mM Na2HPO4, 25 °C, 100 nM enzyme; prephenate dehydratase reaction
[2] = test system: AncCDT-5; conditions: 50 mM Na2HPO4, 25 °C, 100 nM enzyme

Compound `O=C(O)C(=O)CC1(C(=O)O)C=CC(O)C=C1` (centres unmarked) [prephenate] has a Km [1] of 169 ± 22.9 µM and a Km [2] of 178 ± 27.1 µM.
